In patent US12649753B2, “Inositol derivative and use thereof” (SHANGHAI SENHUI MEDICINE CO., LTD., priority 2020, dated 2026):

Assay: Spectrophotometric pharmacodynamics (PD) assay: inhibition of hydroxyapatite generation in human plasma
Format: biochemical
Details: human plasma (EDTA-K2), phosphate 1.5 mM and calcium 12.5 mM final, 25° C., slope of absorbance at 550 nm between 6 min and 24 min; read-out: IC50 (Mean ± SD)
Experimental: The inhibition effect of the test compounds on the generation of the human plasma hydroxyapatite (HAP) was determined by the spectrophotometric pharmacodynamics (PD) assay.
1.1 Preparation of Reagents • 1) Human plasma anticoagulated with EDTA-K2. • 2) Mixed solution: disodium hydrogen phosphate 5 mM, calcium chloride 41.67 mM, adjusted to pH 7.4 and filtered through a 0.22 μm filter. • 3) Sodium chloride solution: 0.15 M, adjusted to pH 7.4 and filtered through a 0.22 μm filter.
2.1 Test Procedures • 1) The test compounds were prepared using a 0.15 M sodium chloride solution. • 2) The human plasma sample was reprocessed. A sufficient amount of plasma was taken and centrifuged at room temperature at 10000 g for 30 min for later use. • 3) The plasma was added to a 96 well plate at 75 μL/well. • 4) The candidate drug was added at 5 μL/well. • 5) The mixed solution of disodium hydrogen phosphate and calcium chloride was added at […], with expected final concentrations of 1.5 mM and 12.5 mM, respectively. • 6) The plate was incubated at room temperature (25° C.) on a shaker (750 rpm), and the absorbance at a wavelength of 550 nm was measured every 3 min. • 7) The final reading was set as the slope of the change in absorbance between 6 min and 24 min.

For `COCCOCCO[C@@H]1C(OP(=O)(O)O)[C@H](OCCOCCOC)[C@@H](OP(=O)(O)O)C(OP(=O)(O)O)[C@H]1OP(=O)(O)O` (stereo partly shown) [INS 3001], which IC50 is on record?
The IC50 was 1.86 ± 0.142 µM.
